Measurements taken from paper PMC5762309 (Oncotarget, 2017).

Assays:
[1] = biological target: T1, WNK1 (Homo sapiens, UniProt Q9H4A3); assay: KINOMEScan; type: binding; set-up: dose or concentration left out as unconfirmed
T1 construct: purchased DiscoverX KINOMEscan

[2] = biological target: T2, EGFR(S752-I759del) (Homo sapiens, UniProt P00533, DEL752-759); assay: KINOMEScan; type: binding; set-up: dose or concentration left out as unconfirmed
T2 construct: purchased DiscoverX KINOMEscan

[3] = biological target: T3, PIKFYVE (Homo sapiens, UniProt Q9Y2I7); assay: KINOMEScan; type: binding; set-up: dose or concentration left out as unconfirmed
T3 construct: purchased DiscoverX KINOMEscan

[4] = biological target: KIT D816V (Homo sapiens, UniProt P10721, D816V); assay: KIT auto-phosphorylation in transformed BaF3 cells; details: 2h
[5] = biological target: T4, p38-alpha (Homo sapiens, UniProt Q16539); assay: KINOMEScan; type: binding; set-up: dose or concentration left out as unconfirmed
T4 construct: purchased DiscoverX KINOMEscan

[6] = tested on: AKT, S6, ERK, p70S6K and STAT3 phosphorylation; assay: Signaling pathway study in BaF3-TEL-KIT-V559D cells; type: cell-based; details: KIT-V559D transformed stable BaF3 cells, Western blot
[7] = biological target: T5, EGFR(L747-E749del, A750P) (Homo sapiens, UniProt P00533, A750P/DEL747-749); assay: KINOMEScan; type: binding; set-up: dose or concentration left out as unconfirmed
T5 construct: purchased DiscoverX KINOMEscan

[8] = biological target: T6, PKMYT1 (Homo sapiens, UniProt Q99640); assay: KINOMEScan; type: binding; set-up: dose or concentration left out as unconfirmed
T6 construct: purchased DiscoverX KINOMEscan

[9] = biological target: T7, ULK1 (Homo sapiens, UniProt O75385); assay: KINOMEScan; type: binding; set-up: dose or concentration left out as unconfirmed
T7 construct: purchased DiscoverX KINOMEscan

[10] = biological target: T8, SYK (Homo sapiens, UniProt P43405); assay: KINOMEScan; type: binding; set-up: dose or concentration left out as unconfirmed
T8 construct: purchased DiscoverX KINOMEscan

[11] = biological target: T9, JNK2 (Homo sapiens, UniProt P45984); assay: KINOMEScan; type: binding; set-up: dose or concentration left out as unconfirmed
T9 construct: purchased DiscoverX KINOMEscan

[12] = biological target: T10, SNARK (Homo sapiens, UniProt Q9H093); assay: KINOMEScan; type: binding; set-up: dose or concentration left out as unconfirmed
T10 construct: purchased DiscoverX KINOMEscan

[13] = biological target: T11, CSNK1G3 (Homo sapiens, UniProt Q9Y6M4); assay: KINOMEScan; type: binding; set-up: dose or concentration left out as unconfirmed
T11 construct: purchased DiscoverX KINOMEscan

[14] = biological target: T12, EGFR(G719C) (Homo sapiens, UniProt P00533, G719C); assay: KINOMEScan; type: binding; set-up: dose or concentration left out as unconfirmed
T12 construct: purchased DiscoverX KINOMEscan

[15] = biological target: T13, BMPR2 (Homo sapiens, UniProt Q13873); assay: KINOMEScan; type: binding; set-up: dose or concentration left out as unconfirmed
T13 construct: purchased DiscoverX KINOMEscan

[16] = tested on: BaF3-TEL-KIT-V559D tumors; assay: BaF3-TEL-KIT-V559D allograft model
[17] = biological target: T14, LOK (Homo sapiens, UniProt O94804); assay: KINOMEScan; type: binding; set-up: dose or concentration left out as unconfirmed
T14 construct: purchased DiscoverX KINOMEscan

[18] = biological target: T15, TYK2(JH2domain-pseudokinase) (Homo sapiens, UniProt P29597); assay: KINOMEScan; type: binding; set-up: dose or concentration left out as unconfirmed
T15 construct: TYK2(JH2domain-pseudokinase); purchased DiscoverX KINOMEscan

[19] = biological target: T16, CDC2L5 (Homo sapiens, UniProt Q14004); assay: KINOMEScan; type: binding; details: Concentrations 1 µM
T16 construct: purchased DiscoverX KINOMEscan
Source text: Then we used the DiscoverX’s KINOMEScan platform to further examine CHMFL-KIT-031’s kinome-wide selectivity profile. […] Besides the strong binding to V559D, it also bound strongly to KIT wt, L576P and A829P.

[20] = biological target: T17, PLK2 (Homo sapiens, UniProt Q9NYY3); assay: KINOMEScan; type: binding; set-up: dose or concentration left out as unconfirmed
T17 construct: purchased DiscoverX KINOMEscan

[21] = biological target: T18, PRKR (Homo sapiens, UniProt P19525); assay: KINOMEScan; type: binding; set-up: dose or concentration left out as unconfirmed
T18 construct: purchased DiscoverX KINOMEscan

[22] = biological target: T19, EGFR(G719S) (Homo sapiens, UniProt P00533, G719S); assay: KINOMEScan; type: binding; set-up: dose or concentration left out as unconfirmed
T19 construct: purchased DiscoverX KINOMEscan

[23] = biological target: T20, MLK3 (Homo sapiens, UniProt Q16584); assay: KINOMEScan; type: binding; set-up: dose or concentration left out as unconfirmed
T20 construct: purchased DiscoverX KINOMEscan

[24] = biological target: T21, EGFR(L858R) (Homo sapiens, UniProt P00533, L858R); assay: KINOMEScan; type: binding; set-up: dose or concentration left out as unconfirmed
T21 construct: purchased DiscoverX KINOMEscan

[25] = tested on: BaF3-tel-KIT-V559D; assay: Anti-proliferation assay, transformed BaF3 cells; type: cell-based; details: Mus musculus, 72 hours, CellTiter-Glo
Source text: Retroviral constructs for BaF3-KIT mutants were made based on the pMSCVpuro (Clontech) backbone. For TEL-KIT vector, the first 1 kb of human TEL gene with an artificial myristoylation sequence ([…]) was cloned into the pMSCVpuro retroviral vector, followed by a 3xFLAG tag sequence. Then, the kinase domain coding sequence of KIT was inserted in-frame between TEL and 3xFLAG sequences. For full-length expression vectors, the coding sequences of KIT variants were directly cloned in pMSCVpuro vector with a 3xFLAG tag at the C-terminal end. All mutagenesis was performed using the QuikChange Site-Directed Mutagenesis Kit (Stratagene) following the manufacturer’s instructions. Retrovirus was packaged in HEK293T cells by transfecting KIT-containing MSCV vectors together with two helper plasmids. Virus supernatants were harvested 48 h after transfection and filtered before infection. Then BaF3 cells were infected with harvested virus supernatants using spinoculation protocol, and stable cell lines were obtained by puromycin selection for 48 h. The IL-3 concentrations in the culture medium were gradually withdrawn until cells were able to grow in the absence of IL-3.
Cells were grown in 96-well culture plates (2500/well). The compounds of various concentrations were added into the plates. Cell proliferation was determined after treatment with compounds for 72 hours. Cell viability was measured using the CellTiter–Glo assay (Promega, USA), according to the manufacturer’s instructions, and luminescence was measured in a multi-label reader (Envision, PerkinElmer, USA). Data were normalized to control groups (DMSO) and represented by the mean of three independent measurements with standard error <20%. GI50 values were calculated using Prism 5.0 (GraphPad Software, San Diego, CA).

Chain of KIT D816V (P10721 26-976 D816V): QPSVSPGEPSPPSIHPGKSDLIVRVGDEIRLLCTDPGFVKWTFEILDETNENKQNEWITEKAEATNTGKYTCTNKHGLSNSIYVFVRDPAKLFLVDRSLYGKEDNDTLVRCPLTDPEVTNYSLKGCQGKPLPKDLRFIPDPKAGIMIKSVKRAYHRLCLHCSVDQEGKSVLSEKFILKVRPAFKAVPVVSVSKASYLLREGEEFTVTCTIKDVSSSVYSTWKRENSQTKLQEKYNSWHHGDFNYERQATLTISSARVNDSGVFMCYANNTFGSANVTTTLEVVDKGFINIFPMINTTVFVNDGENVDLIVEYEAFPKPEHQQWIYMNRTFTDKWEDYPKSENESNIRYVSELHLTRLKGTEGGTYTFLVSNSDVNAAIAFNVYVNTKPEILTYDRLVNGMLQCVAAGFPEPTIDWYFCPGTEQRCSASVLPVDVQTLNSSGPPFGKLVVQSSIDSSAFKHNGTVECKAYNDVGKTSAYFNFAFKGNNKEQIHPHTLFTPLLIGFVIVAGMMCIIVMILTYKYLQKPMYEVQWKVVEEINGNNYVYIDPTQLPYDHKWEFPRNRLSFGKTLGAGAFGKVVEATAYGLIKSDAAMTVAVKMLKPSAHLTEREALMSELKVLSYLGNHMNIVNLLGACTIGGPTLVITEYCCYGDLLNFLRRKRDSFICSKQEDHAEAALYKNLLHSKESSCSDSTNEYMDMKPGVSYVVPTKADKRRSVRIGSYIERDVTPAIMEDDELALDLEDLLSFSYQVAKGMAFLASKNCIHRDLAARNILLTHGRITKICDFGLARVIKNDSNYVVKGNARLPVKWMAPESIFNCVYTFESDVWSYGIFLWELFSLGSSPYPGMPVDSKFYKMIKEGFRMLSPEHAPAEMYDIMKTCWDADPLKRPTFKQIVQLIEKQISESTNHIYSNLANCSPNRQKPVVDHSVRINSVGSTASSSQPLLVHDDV
T16 sequence (Q14004 whole entry): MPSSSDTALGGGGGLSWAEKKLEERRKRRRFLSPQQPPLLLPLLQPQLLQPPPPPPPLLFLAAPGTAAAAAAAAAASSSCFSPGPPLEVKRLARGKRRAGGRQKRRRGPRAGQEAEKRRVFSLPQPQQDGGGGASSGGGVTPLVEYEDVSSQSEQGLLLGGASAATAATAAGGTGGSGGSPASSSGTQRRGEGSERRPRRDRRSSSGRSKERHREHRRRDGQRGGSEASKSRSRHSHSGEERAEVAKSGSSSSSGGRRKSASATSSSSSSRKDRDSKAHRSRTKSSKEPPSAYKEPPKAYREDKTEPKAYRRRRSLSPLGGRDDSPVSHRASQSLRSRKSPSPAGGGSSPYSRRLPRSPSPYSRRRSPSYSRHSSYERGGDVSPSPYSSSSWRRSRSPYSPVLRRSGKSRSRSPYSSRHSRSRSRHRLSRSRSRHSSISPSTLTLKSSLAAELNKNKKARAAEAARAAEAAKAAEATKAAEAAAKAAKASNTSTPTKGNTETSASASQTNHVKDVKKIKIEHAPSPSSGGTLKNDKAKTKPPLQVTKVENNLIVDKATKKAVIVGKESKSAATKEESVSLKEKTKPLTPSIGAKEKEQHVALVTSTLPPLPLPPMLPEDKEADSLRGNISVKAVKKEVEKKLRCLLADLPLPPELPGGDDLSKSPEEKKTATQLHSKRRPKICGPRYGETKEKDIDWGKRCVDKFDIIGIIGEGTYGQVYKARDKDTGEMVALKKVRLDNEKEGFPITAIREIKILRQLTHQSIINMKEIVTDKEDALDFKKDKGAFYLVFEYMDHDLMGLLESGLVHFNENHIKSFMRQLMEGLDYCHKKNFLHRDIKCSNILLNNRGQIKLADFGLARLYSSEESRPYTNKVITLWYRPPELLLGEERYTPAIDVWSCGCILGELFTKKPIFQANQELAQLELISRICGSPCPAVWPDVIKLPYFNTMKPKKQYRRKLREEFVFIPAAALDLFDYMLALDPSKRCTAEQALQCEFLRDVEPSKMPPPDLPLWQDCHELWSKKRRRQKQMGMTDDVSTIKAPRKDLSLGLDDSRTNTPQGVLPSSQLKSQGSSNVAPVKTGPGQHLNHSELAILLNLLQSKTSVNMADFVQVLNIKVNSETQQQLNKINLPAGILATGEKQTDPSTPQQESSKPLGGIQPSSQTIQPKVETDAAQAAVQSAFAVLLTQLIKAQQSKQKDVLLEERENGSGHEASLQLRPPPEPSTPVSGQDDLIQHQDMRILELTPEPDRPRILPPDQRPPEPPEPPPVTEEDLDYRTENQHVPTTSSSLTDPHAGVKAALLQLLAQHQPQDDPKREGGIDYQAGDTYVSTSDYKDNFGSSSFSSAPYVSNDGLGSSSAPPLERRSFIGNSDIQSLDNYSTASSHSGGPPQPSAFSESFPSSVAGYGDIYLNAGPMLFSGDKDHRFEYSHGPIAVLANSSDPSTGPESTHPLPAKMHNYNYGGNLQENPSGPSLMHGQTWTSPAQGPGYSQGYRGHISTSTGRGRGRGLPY
T3 sequence (Q9Y2I7 whole entry): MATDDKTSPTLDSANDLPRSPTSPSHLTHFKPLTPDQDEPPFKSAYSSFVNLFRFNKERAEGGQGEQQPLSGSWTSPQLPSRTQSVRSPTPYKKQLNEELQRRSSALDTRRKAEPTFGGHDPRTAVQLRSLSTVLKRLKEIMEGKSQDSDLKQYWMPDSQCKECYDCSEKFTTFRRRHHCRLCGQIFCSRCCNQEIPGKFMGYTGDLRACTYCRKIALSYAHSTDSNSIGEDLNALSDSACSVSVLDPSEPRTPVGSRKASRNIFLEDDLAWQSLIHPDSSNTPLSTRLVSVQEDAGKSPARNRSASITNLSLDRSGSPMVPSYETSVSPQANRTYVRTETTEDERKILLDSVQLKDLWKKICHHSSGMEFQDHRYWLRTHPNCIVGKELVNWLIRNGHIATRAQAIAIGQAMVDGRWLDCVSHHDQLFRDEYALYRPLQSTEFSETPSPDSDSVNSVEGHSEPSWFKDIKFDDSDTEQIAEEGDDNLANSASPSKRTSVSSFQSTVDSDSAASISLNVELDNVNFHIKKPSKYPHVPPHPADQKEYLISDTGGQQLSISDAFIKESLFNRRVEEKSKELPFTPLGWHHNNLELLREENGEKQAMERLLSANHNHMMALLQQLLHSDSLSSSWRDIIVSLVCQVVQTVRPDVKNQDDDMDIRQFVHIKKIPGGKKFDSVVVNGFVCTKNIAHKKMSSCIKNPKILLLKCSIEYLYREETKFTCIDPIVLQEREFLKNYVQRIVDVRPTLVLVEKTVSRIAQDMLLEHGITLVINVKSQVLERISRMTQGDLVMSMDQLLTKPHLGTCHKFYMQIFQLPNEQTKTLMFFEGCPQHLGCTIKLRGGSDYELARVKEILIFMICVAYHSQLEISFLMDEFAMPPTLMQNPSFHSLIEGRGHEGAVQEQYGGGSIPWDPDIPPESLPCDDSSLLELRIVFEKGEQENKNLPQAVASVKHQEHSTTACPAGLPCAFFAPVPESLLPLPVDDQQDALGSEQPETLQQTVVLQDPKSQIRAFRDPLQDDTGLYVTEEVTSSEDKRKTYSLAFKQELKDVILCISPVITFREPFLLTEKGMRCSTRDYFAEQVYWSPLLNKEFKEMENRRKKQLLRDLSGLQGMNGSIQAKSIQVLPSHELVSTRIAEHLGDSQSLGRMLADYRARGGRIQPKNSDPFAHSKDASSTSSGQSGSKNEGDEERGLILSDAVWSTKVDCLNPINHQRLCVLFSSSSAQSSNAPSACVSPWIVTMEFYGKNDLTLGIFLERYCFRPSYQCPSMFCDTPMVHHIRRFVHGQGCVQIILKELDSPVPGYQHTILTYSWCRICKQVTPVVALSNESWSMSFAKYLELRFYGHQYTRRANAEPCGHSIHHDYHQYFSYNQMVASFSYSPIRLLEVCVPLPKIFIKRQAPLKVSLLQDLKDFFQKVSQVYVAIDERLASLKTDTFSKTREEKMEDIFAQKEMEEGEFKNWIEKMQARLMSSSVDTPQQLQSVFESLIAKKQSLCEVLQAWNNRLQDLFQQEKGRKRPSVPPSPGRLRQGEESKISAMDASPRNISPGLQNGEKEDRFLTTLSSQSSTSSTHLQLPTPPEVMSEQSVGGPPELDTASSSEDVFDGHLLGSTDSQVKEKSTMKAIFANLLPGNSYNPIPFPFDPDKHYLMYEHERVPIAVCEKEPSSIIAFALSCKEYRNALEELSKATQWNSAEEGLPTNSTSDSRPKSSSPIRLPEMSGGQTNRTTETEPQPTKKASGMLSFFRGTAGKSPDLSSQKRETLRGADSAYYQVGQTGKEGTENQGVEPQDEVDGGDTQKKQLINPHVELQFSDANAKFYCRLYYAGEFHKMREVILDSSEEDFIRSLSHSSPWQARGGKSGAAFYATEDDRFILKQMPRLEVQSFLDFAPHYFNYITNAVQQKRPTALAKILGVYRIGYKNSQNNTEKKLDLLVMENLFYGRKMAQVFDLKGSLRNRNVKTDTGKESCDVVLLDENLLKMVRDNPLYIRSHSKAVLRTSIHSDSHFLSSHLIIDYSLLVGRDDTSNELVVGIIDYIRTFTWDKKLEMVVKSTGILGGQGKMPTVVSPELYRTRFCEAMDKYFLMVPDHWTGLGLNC
T2 sequence (P00533 with tags, fused parts or gaps DEL752-759 limits assumed): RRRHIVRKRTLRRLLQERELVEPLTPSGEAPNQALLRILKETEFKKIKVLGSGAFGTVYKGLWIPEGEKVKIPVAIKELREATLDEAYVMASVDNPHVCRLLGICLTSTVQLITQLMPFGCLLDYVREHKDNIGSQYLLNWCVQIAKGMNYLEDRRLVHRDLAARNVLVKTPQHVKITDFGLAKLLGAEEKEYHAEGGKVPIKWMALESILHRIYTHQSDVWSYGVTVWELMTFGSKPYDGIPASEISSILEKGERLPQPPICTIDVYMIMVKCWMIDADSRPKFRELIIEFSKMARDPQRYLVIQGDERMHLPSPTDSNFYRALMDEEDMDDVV

COc1cc(C(=O)NCC(=O)Nc2ccc3c(/C=C/c4ccccn4)n[nH]c3c2)cc(OC)c1OC [CHMFL-KIT-031]
KINOMEScan profiling value [1]: 19 | KINOMEScan profiling value [2]: 92 | KINOMEScan profiling value [3]: 87 | EC50 ([4]; EC50 pY703 auto-phosphorylation): > 10 µM | EC50 ([4]; EC50 pY719 auto-phosphorylation): > 10 µM | EC50 ([4]; EC50 pY823 auto-phosphorylation): 4.59 µM | KINOMEScan profiling value [5]: 94 | phosphorylation of downstream mediators AKT, S6, ERK, p70S6K and STAT3 [6]: potently inhibited | KINOMEScan profiling value [7]: 100 | KINOMEScan profiling value [8]: 91 | KINOMEScan profiling value [9]: 92 | KINOMEScan profiling value [10]: 100 | KINOMEScan profiling value [11]: 92 | KINOMEScan profiling value [12]: 100 | KINOMEScan profiling value [13]: 99 | KINOMEScan profiling value [14]: 100 | KINOMEScan profiling value [15]: 100 | TGI ([16]; 100mg/kg/d IP, 10 days): 68.5% | KIT, AKT, S6 and STAT3 phosphorylation in tumor tissue ([16]; starting from 50 mg/kg, Western blot after 10-day treatment): significantly affect | KINOMEScan profiling value [17]: 96 | KINOMEScan profiling value [18]: 100 | KINOMEScan profiling value [19]: 97 | KINOMEScan profiling value [20]: 100 | KINOMEScan profiling value [21]: 97 | KINOMEScan profiling value [22]: 95 | KINOMEScan profiling value [23]: 100 | KINOMEScan profiling value [24]: 100 | GI50 [25]: 0.025 µM
